Measured values taken from patent US8158621B2, “Methods of treating or preventing autoimmune diseases with 2,4-pyrimidinediamine compounds” (Rigel Pharmaceuticals, Inc., priority 2002, dated 2012).
Like-named read-outs stand apart in the source and are kept apart here.

Tested on: Human Jurkat T-cells (clone N)
Assay: Jurkat T-cell activation (anti-TCR, CD69 upregulation)
Type: cell-based
Outline: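 Readout is CD69 upregulation by flow cytometry (anti-CD69-APC, 20 min at 4 °C) after 20 h anti-TCR (C305, 500 ng/ml) stimulation at 37 °C.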

Row | IC50 [µM] | IC50 (Homo sapiens, Jurkat) [µM] | SMILES | further results
1 | 2.09 |  | COc1cccc(Nc2nc(Nc3cccc(OCC(=O)NCC(O)CO)c3)ncc2F)c1 (stereo not shown) [Compound R926739] | 
2 | > 10 |  | O=C(COc1cccc(Nc2ncc(F)c(Nc3ccc4c(c3)C(=O)OC4)n2)c1)NCC(O)CO (stereo not shown) [Compound R940293] | 
3 | 0.668 |  | CC(C)Oc1ccc(Nc2nc(Nc3ccc4c(cnn4CCO)c3)ncc2F)cc1 [Compound R935255] | 
4 | > 10 |  | CC(C)(C)c1ccc(Nc2nc(Nc3cccc(OCCO)c3)ncc2F)cc1 [Compound R926728] | 
5 | 2.17 |  | CC(C)(CO)NC(=O)COc1cccc(Nc2ncc(F)c(Nc3ccc4c(c3)OCCO4)n2)c1 [Compound R926764] | 
6 | 13.7 |  | CNC(=O)COc1cccc(Nc2ncc(F)c(Nc3ccc4c(c3)OCC(=O)N4)n2)c1 [Compound R908700] | 
7 | 4.47 |  | CNC(=O)COc1cccc(Nc2ncc(F)c(Nc3cnc4c(c3)OCCN4)n2)c1 [Compound R945263] | 
8 |  | 5.45 | CCOc1ccc(Nc2ncc(F)c(Nc3ccc(OCC)c(N)c3)n2)cc1N [Compound R950139] | 
9 | 17.4 |  | CNC(=O)COc1cccc(Nc2ncc(F)c(Nc3cccc([N+](=O)[O-])c3)n2)c1 [Compound R950261] | 
10 |  | 2.96 | Oc1cccc(Nc2ncc(C(F)(F)F)c(Nc3cccc(O)c3)n2)c1 [Compound R925863] | 
11 | 24.1 |  | COC(=O)c1cc2cc(Nc3nc(Nc4ccc(OCc5nc(-c6ccccc6)no5)cc4)ncc3F)ccc2o1 [Compound R935137] | 
12 |  | 6.73 | COc1cccc(Nc2ncc(F)c(Nc3cccc(OC)c3)n2)c1 [Compound R926065] | 
13 | 6.2 |  | CC(C)(C)c1cccc(Nc2nc(Nc3ccc4oc(CO)cc4c3)ncc2F)c1 [Compound R940287] | 
14 |  | > 10 | N#Cc1cc(Nc2ncc(F)c(Nc3ccc(O)c(C#N)c3)n2)ccc1O [Compound R950092] | 
15 | 2.43 |  | O=C(c1cc2cc(Nc3ncc(F)c(Nc4cccc(O)c4)n3)ccc2o1)N1CCOCC1 [Compound R926488] | 
16 | 1.51 |  | Cc1cc(Nc2nc(Nc3cccc(OCCN4CCOCC4)c3)ncc2F)cc(C)c1O [Compound R940255] | 
17 | > 10 |  | Cc1noc(COc2cccc(Nc3nc(Nc4cccc(O)c4)ncc3F)c2)n1 [Compound R945130] | 
18 | 0.708 |  | Cn1ncc2cc(Nc3ncc(F)c(Nc4ccc5c(c4)NC(=O)C(C)(C)O5)n3)ccc21 [Compound R940338] | 
19 | 0.393 |  | CNC(=O)COc1cccc(Nc2ncc(F)c(Nc3ccc(C)c(O)c3)n2)c1 [Compound R926753] | 
20 | 5.57 |  | COC(=O)Cn1ncc2ccc(Nc3nc(Nc4ccc5c(c4)OCCO5)ncc3F)cc21 [Compound R935219] | 
21 | 2.6 |  | O=C(COc1cccc(Nc2ncc(F)c(Nc3ccc4c(c3)OCCO4)n2)c1)N1CCNCC1 [Compound R926503] | 

Row | IC50 [µM] | IC50 (Homo sapiens, Jurkat) [µM] | SMILES | further results
22 | 3.09 |  | CNC(=O)c1cc(COc2cccc(Nc3ncc(F)c(Nc4ccc5c(c4)OCCO5)n3)c2)co1 [Compound R935213] | 
23 | 3.43 |  | CC(C)Oc1ccc(Nc2nc(Nc3ccc4cnn(CCCO)c4c3)ncc2F)cc1 [Compound R935290] | 
24 |  | 3.99 | OCCOc1ccc(Nc2ncc(F)c(Nc3ccc4oc(CO)cc4c3)n2)cc1 [Compound R935174] | 
25 |  | > 10 | Oc1cccc(Nc2nc(NCc3ccccn3)ncc2F)c1 [Compound R945166] | 
26 | 7.87 |  | CC(C)Oc1ccc(Nc2nc(Nc3ccc4oc(C(=O)N5CCCC5)cc4c3)ncc2F)cc1 [Compound R926703] | 
27 | 1.28 |  | COC(=O)c1cc2cc(Nc3ncc(F)c(Nc4ccc5[nH]c(C(=O)OC)cc5c4)n3)ccc2[nH]1 [Compound R926593] | 
28 |  | 5.92 | COc1ccc(Nc2nc(Nc3cccc(O)c3)ncc2F)c(OC)n1 [Compound R926887] | 
29 | 3.86 |  | CCOC(=O)CNc1cccc(Nc2ncc(F)c(Nc3cccc(O)c3)n2)c1 [Compound R950216] | 
30 |  | 2.37 | Oc1ccc(Nc2ncc(F)c(Nc3ccc(O)c(Cl)c3)n2)cc1Cl [Compound R926675] | 
31 | 2.51 |  | Oc1cccc(Nc2nc(Nc3ccc4[nH]ncc4c3)ncc2F)c1 [Compound R935199] | 
32 |  | 7.88 | CNC(=O)c1cccc(Nc2ncc(F)c(Nc3cccc(O)c3)n2)c1 [Compound R926936] | 
33 | 1.72 |  | O=C(COc1cccc(Nc2ncc(F)c(Nc3ccc4c(c3)OCCO4)n2)c1)NC1CC1 [Compound R926848] | 
34 |  | 7.36 | OB(O)c1cccc(Nc2nc(Nc3cccc(O)c3)ncc2F)c1 [Compound R926755] | 
35 | 13 |  | CCOC(=O)COc1cccc(Nc2ncc(F)c(Nc3ccc4c(c3)OCCN4)n2)c1 [Compound R909266] | 
36 | 2.93 |  | CNC(=O)COc1cccc(Nc2ncc(F)c(Nc3ccc4[nH]ccc4c3)n2)c1 [Compound R926931] | 
37 |  | > 10 | CCOc1cccc(Nc2ncc(F)c(Nc3cccc(OCC)c3)n2)c1 [Compound R926064] | 
38 | > 10 |  | CCOC(=O)C(C)(C)Oc1cccc(Nc2ncc(F)c(Nc3cccc(O)c3)n2)c1 [Compound R926906] | 
39 |  | > 10 | Oc1cccc(Nc2nc(NCC3COc4ccccc4O3)ncc2F)c1 (stereo not shown) [Compound R950214] | 
40 | 4.75 |  | Cc1cc(Nc2nc(Nc3cccc(OCCN4CCOCC4)c3)ncc2F)cc(C)c1O [Compound R940256] | 
41 |  | > 10 | Cc1cc(CNc2ncc(F)c(Nc3cccc(O)c3)n2)c(C)o1 [Compound R945162] | 
42 |  | 20.8 | COc1ccc(Nc2ncc(F)c(Nc3ccc(OC)cc3)n2)cc1 [Compound R926017] | 

Second part, the molecule before the results:

Row | SMILES | IC50 [µM] | IC50 (Homo sapiens, Jurkat) [µM] | further results
43 | COc1ccc(-c2ccccc2)cc1Nc1ncc(F)c(Nc2cc(-c3ccccc3)ccc2OC)n1 [Compound R926400] | > 10 |  | 
44 | Oc1cccc(Nc2nc(Nc3ccc(OCc4nnn[nH]4)cc3)ncc2C(F)(F)F)c1 [Compound R920846] | 10.4 |  | 
45 | Cc1c(O)ccc(Nc2ncc(F)c(Nc3ccc(O)c(C)c3C)n2)c1C [Compound R940217] |  | > 10 | 
46 | Cc1ccc(CNc2ncc(F)c(Nc3ccc4c(c3)OCCO4)n2)cc1Cl [Compound R908696] |  | > 10 | 
47 | CCOc1ccc(Nc2ccnc(Nc3ccc(OCC)cc3)n2)cc1 [Compound R926069] |  | 4.31 | 
48 | Cc1c(O)cccc1Nc1ncc(F)c(Nc2cccc(O)c2C)n1 [Compound R945038] |  | > 10 | 
49 | CCOC(=O)c1cnc(Nc2ccc(CC#N)cc2)nc1Nc1ccc(CC#N)cc1 [Compound R926319] |  | 15.6 | 
50 | Fc1cnc(Nc2ccc3c(c2)OCCO3)nc1Nc1ccc(OCCN2CCOCC2)cc1 [Compound R926711] | 3.79 |  | 
51 | O=C(NCCN1CCOCC1)c1cc2cc(Nc3ncc(F)c(Nc4ccc5oc(C(=O)NCCN6CCOCC6)cc5c4)n3)ccc2o1 [Compound R950173] | 9.18 |  | 
52 | COC(=O)c1cc(Nc2ncc(F)c(Nc3ccc(OC(C)C)cc3)n2)cn1C [Compound R935164] | 3.32 |  | 
53 | O=C1OCc2ccc(Nc3ncc(F)c(Nc4ccc5c(c4)OCCO5)n3)cc21 [Compound R926786] | 7.36 |  | 
54 | Cc1noc(COc2ccc(Nc3ncc(F)c(Nc4ccc(OC(C)C)cc4)n3)cc2)n1 [Compound R935142] | 9.67 |  | 
55 | OCC(O)COc1ccc(Nc2ncc(F)c(Nc3ccc4c(c3)OCCO4)n2)cc1 (stereo not shown) [Compound R935179] | 3 |  | 
56 | COc1cc(-c2ccccc2)c(C)cc1Nc1ncc(F)c(Nc2cc(C)c(-c3ccccc3)cc2OC)n1 [Compound R926401] | > 10 |  | 
57 | Fc1cnc(NCC2COc3ccccc3O2)nc1Nc1ccc2c(c1)OCCO2 (stereo not shown) [Compound R950206] |  | > 10 | 
58 | Fc1ccc(Nc2ncc(F)c(Nc3ccc4c(c3)OCCO4)n2)cc1 [Compound R926220] |  | > 10 | 
59 | Fc1cnc(Nc2cccc(-c3ccccc3)c2)nc1Nc1cccc(-c2ccccc2)c1 [Compound R926403] |  | > 10 | 
60 | Cc1noc(C)c1Nc1ncc(F)c(Nc2ccc3c(c2)OCCO3)n1 [Compound R926744] |  | > 10 | 
61 | COc1ccc(OCCNc2ncc(F)c(Nc3ccc4c(c3)OCCO4)n2)cc1 [Compound R950204] |  | > 10 | 

Row | SMILES | IC50 [µM] | IC50 (Homo sapiens, Jurkat) [µM] | further results
62 | CCOc1ccc(Nc2ncc(C)c(Nc3ccc(OCC)cc3)n2)cc1 [Compound R926068] |  | 11.4 | 
63 | Cc1ccc(Nc2ncc(F)c(Nc3ccc(C)c([N+](=O)[O-])c3)n2)cc1[N+](=O)[O-] [Compound R950144] |  |  | IC50 (Homo sapiens): > 10 µM
64 | CCOC(=O)CSc1ccc(Nc2ncc(F)c(Nc3ccc4c(c3)OCCO4)n2)cn1 [Compound R926727] | > 10 |  | 
65 | Cn1nnc(COc2ccc(Nc3nccc(Nc4cccc(O)c4)n3)cc2)n1 [Compound R920910] | 2.38 |  | 
66 | O=C(CNc1cccc(Nc2ncc(F)c(Nc3cccc(NCCO)c3)n2)c1)NCCN1CCOCC1 [Compound R950239] | > 10 |  | 
67 | Nc1cc(Nc2ccnc(Nc3cc(N)cc(C(F)(F)F)c3)n2)cc(C(F)(F)F)c1 [Compound R950143] |  | 4.57 | 
68 | COc1ccc(Nc2nc(NCCN3CCN(Cc4ccccc4)CC3)ncc2F)cc1OC [Compound R940262] |  | 6.45 | 
69 | COC(=O)COc1ccc(Nc2ncc(F)c(Nc3ccc(OC(C)C)cc3)n2)cc1 [Compound R935159] | > 10 |  | 
70 | Cn1nnc(COc2ccc(Nc3nc(Nc4ccc(OCc5nnnn5C)cc4)ncc3F)cc2)n1 [Compound R945047] | 3.21 |  | 
71 | CCOc1ccc(Nc2cc(Cl)nc(Nc3ccc(OCC)cc3)n2)cc1 [Compound R926072] |  | > 10 | 
72 | N#CCOc1ccc(Nc2ncc(F)c(Nc3ccc4c(c3)OCCO4)n2)cc1 [Compound R926480] | > 10 |  | 
73 | c1cc(Nc2ccc3c(c2)OCCO3)nc(Nc2ccc3c(c2)OCCO3)n1 [Compound R926243] |  | 2.99 | 
74 | Cc1onc(-c2ccccc2)c1Nc1ncc(F)c(Nc2ccc3c(c2)OCCO3)n1 [Compound R926743] |  | > 10 | 
75 | COc1cc(C(=O)NS(=O)(=O)c2ccccc2C)ccc1Cn1ncc2cc(Nc3ncc(F)c(Nc4ccc5c(c4)OCCO5)n3)ccc21 [Compound R935339] | > 10 |  | 
76 | COC(=O)COc1ccc(Nc2ncc(F)c(Nc3ccc(OCC#N)cc3)n2)cc1 [Compound R945053] | 2.67 |  | 
77 | CON=C(N)COc1ccc(Nc2nc(Nc3ccc4c(c3)OCCO4)ncc2F)cc1 [Compound R945175] | 3.79 |  | 
78 | CCOC(=O)c1cnc(Nc2ccc3cn[nH]c3c2)nc1Nc1ccc2cn[nH]c2c1 [Compound R926320] | > 10 |  | 
79 | Fc1cnc(Nc2ccc(C(F)(F)F)cc2)nc1Nc1ccc(C(F)(F)F)cc1 [Compound R926016] |  | > 10 | 
